From publication PMC9694926, “Novel Uracil-Based Inhibitors of Acetylcholinesterase with Potency for Treating Memory Impairment in an Animal Model of Alzheimer’s Disease” (Molecules, 2022)

Assays:
hAChE [1] = target: T1, hAChE (Homo sapiens, UniProt P22303); assay: Inhibition constants and inhibition type for hAChE (Dixon and Cornish-Bowden plots); assay type: biochemical
T1 construct: purchased Sigma-Aldrich
Procedure: (§1) To study the mechanism of hAChE and hBChE inhibition by compound 2c, the inhibition constants (Ki) were determined. Experiments were performed using three different concentrations of acetylthiocholine (ATC) as substrate for hAChE or butyrylthiocholine (BTC) for hBChE. Analysis of Dixon and Cornish-Bowden plots established that hAChE and hBChE inhibition was of mixed type, with Kci (competitive inhibition) and Kui (uncompetitive) components: Kci = […], Kui = 315 ± 95 pM for hAChE (Figure 3A,B), and Kci = 10.1 ± 3.1 µM, Kui = 24 ± 4.6 µM for hBChE (Figure 3C,D).
(§2) The inhibition constants (Ki) for hAChE and hBChE were determined by Ellman’s method at 412 nm and 25 °C in 0.1M sodium phosphate buffer (pH = 8.0) with various substrate (ATC, BTC) concentrations in the range 0.01–0.1 mM, using UV-1800 Shimadzu (Kyoto, Japan) spectrophotometer. The final enzyme concentration in the assays was in the picomolar range. Controls of active enzyme and substrate spontaneous hydrolysis in the absence of an inhibitor were performed for each substrate concentration. Absorbance change was recorded for 5 min. Inhibition constants were determined from Dixon plot and Cornish-Bowden transformation.

hAChE [2] = target: T1, hAChE; assay type: in vitro ADME; conditions: 0.1 mM, overnight with hAChE, phosphate buffer pH 8.0, 25 °C, NMR
Procedure: There is a possibility that the ester group of the compound 2c can be hydrolyzed by AChE. To test this possibility, the compound 2c (0.1 mM) was incubated overnight with AChE in phosphate buffer (pH 8.0). The same buffer containing compound 2c but without AChE was used as a control. After the end of incubation, the buffer was filtered out of AChE using a centricon-30 ultrafiltration micro-concentrator from Amicon (Millipore Corporation, Billerica, MA, USA) and samples were analyzed by NMR spectroscopy. It was shown that the resonance signals both in the control spectrum and in the spectrum of the residue after AChE treatment are almost the same to those for compound 2c (Supplementary materials, Figures S6, S22 and S41–S44).
The compound 2c was dissolved in ethanol and then in 2 mL of 0.1M sodium phosphate buffer (pH = 8.0) at the final concentration of 0.1 mM. Then, 2.0 units of hAChE were added. The final concentration of ethanol in the buffer was 0.1% vol. The compound 2c was incubated with hAChE overnight at 25 °C. The same volume of buffer containing compound 2c at the concentration of 0.1 mM but without AChE was used as a control. After the end of incubation, the buffer was filtered out of AChE using a centricon-30 ultrafiltration micro-concentrator from Amicon (Millipore Corporation, Billerica, MA, USA). […]

hBChE = target: T2, hBChE (Homo sapiens, UniProt P06276); assay: Inhibition constants and inhibition type for hBChE (Dixon and Cornish-Bowden plots); assay type: biochemical
T2 construct: hBChE from blood plasma; purchased Sigma-Aldrich; host or cells: human blood plasma
T2 sequence (P06276 29-602): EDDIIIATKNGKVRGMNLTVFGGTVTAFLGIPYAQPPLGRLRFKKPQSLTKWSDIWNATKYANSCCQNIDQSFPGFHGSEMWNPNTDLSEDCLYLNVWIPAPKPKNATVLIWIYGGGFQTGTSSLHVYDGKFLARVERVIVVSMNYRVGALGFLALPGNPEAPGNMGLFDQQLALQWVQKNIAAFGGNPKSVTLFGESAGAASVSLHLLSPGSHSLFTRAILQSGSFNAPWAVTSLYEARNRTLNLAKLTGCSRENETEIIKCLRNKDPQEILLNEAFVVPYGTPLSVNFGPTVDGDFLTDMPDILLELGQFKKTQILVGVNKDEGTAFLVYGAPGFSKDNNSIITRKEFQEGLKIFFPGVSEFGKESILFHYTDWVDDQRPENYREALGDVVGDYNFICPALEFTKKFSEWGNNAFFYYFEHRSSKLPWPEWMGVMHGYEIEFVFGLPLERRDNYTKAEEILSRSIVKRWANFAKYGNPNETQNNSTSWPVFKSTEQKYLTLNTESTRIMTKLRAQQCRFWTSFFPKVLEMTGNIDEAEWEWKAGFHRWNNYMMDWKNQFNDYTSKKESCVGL
Procedure: as §1, §2

CD1 mice = assay: Acute toxicity (LD50), intraperitoneal injection; assay type: in vivo; conditions: i.p. injection
Procedure: All experiments involving animals were performed in accordance with the guidelines set out by the European Union Council Directive 2010/63/EU; the experimental protocols were approved by the Animal Care and Use Committee of the Federal Research Center “Kazan Scientific Center of the Russian Academy of Sciences”. Toxicological experiments were performed using intraperitoneal injection of the various compounds in CD1 mice weighing 20–25 g. Mice were maintained on a 12 h light/dark cycle (light from 7:00 a.m. to 7:00 p.m.) at 20−22 °C and 60−70% relative humidity. Five different doses (determined during preliminary tests) were used with six animals per dose. Animals were observed 14 days after injection, and symptoms of intoxication were recorded. […] LD50 was determined by the method of Weiss. Stock solutions of compounds were prepared in ethanol or water. Compounds were administered intraperitoneally in sterile physiological saline. The concentration of ethanol in physiological saline was 5% vol.

T1 sequence (P22303 32-614): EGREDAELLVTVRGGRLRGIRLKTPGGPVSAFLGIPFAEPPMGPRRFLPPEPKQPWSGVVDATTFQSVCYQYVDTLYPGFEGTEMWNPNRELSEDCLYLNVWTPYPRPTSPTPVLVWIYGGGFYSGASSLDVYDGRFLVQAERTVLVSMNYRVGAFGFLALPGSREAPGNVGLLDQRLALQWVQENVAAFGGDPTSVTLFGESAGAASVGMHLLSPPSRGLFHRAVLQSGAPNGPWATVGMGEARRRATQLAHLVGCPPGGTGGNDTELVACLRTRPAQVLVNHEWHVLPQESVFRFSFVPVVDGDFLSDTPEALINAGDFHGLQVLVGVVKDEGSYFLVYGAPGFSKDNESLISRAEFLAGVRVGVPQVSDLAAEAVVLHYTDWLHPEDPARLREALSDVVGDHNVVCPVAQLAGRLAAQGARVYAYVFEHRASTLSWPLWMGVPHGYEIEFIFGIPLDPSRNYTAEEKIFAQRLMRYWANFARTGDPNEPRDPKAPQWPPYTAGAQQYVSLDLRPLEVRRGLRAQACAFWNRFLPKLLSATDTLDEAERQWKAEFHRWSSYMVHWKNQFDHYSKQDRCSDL

CCN(CCCCCn1c(C)cc(=O)n(CCCCCN(CC)Cc2cccc(C(=O)OC)c2)c1=O)Cc1cccc(C(=O)OC)c1 [2c, 1,3-Bis[5-(meta-methoxycarbonylbenzylethylamino)pentyl]-6-methyluracil]
type of inhibition (hAChE [1]): mixed type
Kui (uncompetitive) (hAChE [1]; substrate ATC): 315 ± 95 pM
stability in the presence of AChE (hydrolysis of ester groups) (hAChE [2]): remains stable in the presence of AChE
type of inhibition (hBChE): mixed type
Kui (uncompetitive) (hBChE; substrate BTC): 24 ± 4.6 µM
LD50 (CD1 mice): 147 mg/kg
